The target in assay [1] is T1, Biotin tagged HIF-2α protein containing PAS-B domain (240-350) (Homo sapiens, UniProt Q99814).
T1 construct: Biotin tagged HIF-2α protein containing PAS-B domain (240-350) was prepared and purified in-house; made in house
In words: HIF-2α Scintillation Proximity Assay (SPA) binding assay. Particulars: 50 nM HIF-2α protein, 25 nM 3H-tracer, 2% DMSO. How it is done: HIF-2α Scintillation Proximity Assay (SPA) Binding Assay:
Biotin tagged HIF-2α protein containing PAS-B domain (240-350) was prepared and purified in-house.
Compounds solubilized in DMSO were dispensed into a white 384-well polystyrene non-binding flat clear bottom plate (Greiner Bio-One, Cat #781903) using an HP D300 dispenser. Ten microliters of biotinylated HIF-2α protein in buffer (25 mM Tris-HCl, pH 7.4, 150 mM NaCl, 0.15% BSA and 0.001% Tween 20) was added to the compound wells and allowed to incubate for 1 hour at room temperature. Ten microliters of SPA bead mix were added to the wells and incubated for an additional 45 minutes, followed by 10 ul of ^3H-tracer solution. Final assay conditions comprised 50 nM HIF-2α protein, 25 nM radiolabeled tracer and 3 ug beads per well with compounds in 2% DMSO. The plate was read using a MicroBeta Microplate Counter (PerkinElmer) for luminescence detection. The IC50 values of the test compounds were determined from compound dose response curves fitted using a standard four parameter fit equation and are reported in Table 2.

The target of assay [2] is T2, HIF-2α (Homo sapiens, UniProt Q99814). Put plainly: HIF-2α Luciferase Reporter Assay (serum), HRE-luciferase 786-0 cells in 100% human serum. Particulars: for pIC50: 100% human serum, 786-0 reporter cells, overnight incubation, read-out: Serum Potency; for Serum Shift (approximate): ratio of IC50 in 100% serum to IC50 in serum free conditions. Type of assay: cell-based. Summed up:
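786-0 cells stably expressing an HRE-luciferase reporter were plated and rested 3 h. They were then treated overnight at 37 °C with compound diluted in 100% human serum. Serum was replaced with Opti-MEM, ONE-Glo luminescence was read, and IC50 came from a 4-parameter logistic fit.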
On the technique in general: In a reporter assay the amount or activity of a reporter protein is the signal.

The target of assay [3] is T2, HIF-2α. Put plainly: HIF-2α Luciferase Reporter Assay (serum free) in HIF-Luc-786-0 cells. As to conditions: Opti-MEM, 786-0 reporter cells, 20 hours incubation. The format is cell-based. Summed up: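 786-0 cells stably transduced with HIF luciferase reporter, 20,000 cells/well in serum-free Opti-MEM, compounds (50 uM downward, 1% DMSO) 20 h at 37 °C. ONE-Glo luminescence normalized to DMSO and no-cell controls; IC50 from four-parameter fit.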

pIC50: −log10 of the molar value.

T1 sequence (Q99814 240-350): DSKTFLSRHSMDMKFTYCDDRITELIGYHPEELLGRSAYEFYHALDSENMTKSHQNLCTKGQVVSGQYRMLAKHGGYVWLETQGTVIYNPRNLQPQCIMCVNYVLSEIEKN
T2 sequence (Q99814 whole entry): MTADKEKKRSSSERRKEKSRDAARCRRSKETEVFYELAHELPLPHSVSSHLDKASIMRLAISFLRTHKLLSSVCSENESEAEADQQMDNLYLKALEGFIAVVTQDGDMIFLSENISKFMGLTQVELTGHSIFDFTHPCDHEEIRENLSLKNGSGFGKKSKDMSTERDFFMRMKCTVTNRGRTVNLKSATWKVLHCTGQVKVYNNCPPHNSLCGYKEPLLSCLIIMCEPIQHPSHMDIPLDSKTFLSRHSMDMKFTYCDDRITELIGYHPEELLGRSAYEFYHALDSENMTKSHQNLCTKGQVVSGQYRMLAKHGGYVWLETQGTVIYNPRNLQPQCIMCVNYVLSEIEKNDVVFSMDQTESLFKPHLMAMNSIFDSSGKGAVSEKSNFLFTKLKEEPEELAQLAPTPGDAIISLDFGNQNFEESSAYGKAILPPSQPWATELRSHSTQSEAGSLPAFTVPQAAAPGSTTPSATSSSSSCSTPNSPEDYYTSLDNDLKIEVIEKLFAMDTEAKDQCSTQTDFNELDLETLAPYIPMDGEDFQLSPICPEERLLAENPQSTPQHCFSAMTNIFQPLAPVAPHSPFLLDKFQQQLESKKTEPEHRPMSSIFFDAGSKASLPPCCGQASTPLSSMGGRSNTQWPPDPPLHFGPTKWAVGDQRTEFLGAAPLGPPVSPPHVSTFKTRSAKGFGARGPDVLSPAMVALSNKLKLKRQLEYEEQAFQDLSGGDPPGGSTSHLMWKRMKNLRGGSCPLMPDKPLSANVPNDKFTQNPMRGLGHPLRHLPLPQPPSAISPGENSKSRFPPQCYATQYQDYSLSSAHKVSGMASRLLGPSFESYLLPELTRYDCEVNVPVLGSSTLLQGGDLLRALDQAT

In the case of `O[C@H]1c2c(C(F)(F)F)nn(CCCC(F)(F)F)c2CCC1(F)F` [Example 41, (4S)-5,5-difluoro-1-(4,4,4-trifluorobutyl)-3-(trifluoromethyl)-6,7-dihydro-4H-indazol-4-ol], the pIC50 in assay [1] was more than 7.00; at HIF-2α [2], 6.00 to 7.00; on HIF-2α [3], more than 7.00. On HIF-2α [2], the “Serum Shift (approximate)” value was 12.
Turning to `O[C@H]1c2c(C(F)(F)F)nn(C[C@H]3C[C@H](F)C3)c2CCC1(F)F` [Example 45, (4S)-5,5-difluoro-1-[(3-fluorocyclobutyl)methyl]-3-(trifluoromethyl)-6,7-dihydro-4H-indazol-4-ol], the pIC50 in assay [1] is 6.00 to 7.00; on HIF-2α [3], less than 6.00.
Take `CC(C)(C#N)CCn1nc(C(F)(F)F)c2c1CCC(F)(F)[C@H]2O` [Example 1, 4-[(4S)-5,5-Difluoro-4-hydroxy-3-(trifluoromethyl)-6,7-dihydro-4H-indazol-1-yl]-2,2-dimethylbutanenitrile]: the pIC50 was 6.00 to 7.00 in assay [1], less than 6.00 at HIF-2α [2] and less than 6.00 at HIF-2α [3]. Further, the “Serum Shift (approximate)” value on HIF-2α [2] was found to be 2.
As for `COCCCn1nc(C(F)(F)F)c2c1CCC(F)(F)[C@H]2O` [Example 9, (4S)-5,5-difluoro-1-(3-methoxypropyl)-3-(trifluoromethyl)-6,7-dihydro-4H-indazol-4-ol], the pIC50 (in assay [1]; against HIF-2α [3]) was less than 6.00 each time.
As to `O[C@H]1c2c(C(F)(F)F)nn(CCC3CC3(F)F)c2CC1(F)F` (stereo partly drawn) [Example 58, (4S)-1-[2-(2,2-difluorocyclopropyl)ethyl]-5,5-difluoro-3-(trifluoromethyl)-4,6-dihydrocyclopenta[c]pyrazol-4-ol], the pIC50 was more than 7.00 in assay [1], 6.00 to 7.00 at HIF-2α [2] and more than 7.00 at HIF-2α [3]. Besides, on HIF-2α [2], the “Serum Shift (approximate)” value is given as 3.
`O[C@H]1c2c(C(F)(F)F)nn(CCSC(F)(F)F)c2CCC1(F)F` [Example 7, (4S)-5,5-difluoro-3-(trifluoromethyl)-1-[2-(trifluoromethylsulfanyl)ethyl]-6,7-dihydro-4H-indazol-4-ol]: the pIC50 in assay [1] is more than 7.00; at HIF-2α [2], 6.00 to 7.00; on HIF-2α [3] it was more than 7.00. The “Serum Shift (approximate)” value at HIF-2α [2] is 5.
`CCCCn1nc(C(F)(F)F)c2c1CCC(F)(F)[C@H]2O` [Example 39, (4S)-1-butyl-5,5-difluoro-3-(trifluoromethyl)-6,7-dihydro-4H-indazol-4-ol]: the values for the pIC50 (in assay [1]; at HIF-2α [2]; at HIF-2α [3]) were 6.00 to 7.00, less than 6.00 and 6.00 to 7.00, respectively. The “Serum Shift (approximate)” value at HIF-2α [2] is recorded as more than 39.
With `O[C@H]1c2c(C(F)(F)F)nn([C@H]3CC[C@H](C(F)(F)F)CC3)c2CCC1(F)F` [Example 37, (4S)-5,5-difluoro-3-(trifluoromethyl)-1-[4-(trifluoromethyl)cyclohexyl]-6,7-dihydro-4H-indazol-4-ol], the pIC50 (in assay [1]; on HIF-2α [3]) was less than 6.00 each time.
`O[C@H]1c2c(C(F)(F)F)nn(CCC3(F)COC3)c2CCC1(F)F` [Example 21, (4S)-5,5-difluoro-1-[2-(3-fluorooxetan-3-yl)ethyl]-3-(trifluoromethyl)-4,5,6,7-tetrahydro-1H-indazol-4-ol]: the pIC50 is 6.00 to 7.00 in assay [1], less than 6.00 at HIF-2α [2] and 6.00 to 7.00 on HIF-2α [3]. The “Serum Shift (approximate)” value at HIF-2α [2] worked out at 3.
On to `CO[C@H]1c2c(C(F)(F)F)nn(CCCC(F)(F)F)c2CCC1(F)F` [Example 47, (4S)-5,5-difluoro-4-methoxy-1-(4,4,4-trifluorobutyl)-3-(trifluoromethyl)-6,7-dihydro-4H-indazole], for which the pIC50 (in assay [1]; against HIF-2α [3]) was less than 6.00 in each case.
Regarding `O[C@H]1c2c(C(F)(F)F)nn(CCOC(F)(F)F)c2CCC1(F)F` [Example 60, (4S)-5,5-difluoro-1-[2-(trifluoromethoxy)ethyl]-3-(trifluoromethyl)-6,7-dihydro-4H-indazol-4-ol], the pIC50 (in assay [1]; at HIF-2α [2]; against HIF-2α [3]) was less than 6.00 throughout. The “Serum Shift (approximate)” value on HIF-2α [2] was found to be 3.
`O[C@H]1c2c(C(F)(F)F)nn(CC3CC3(F)F)c2CCC1(F)F` (single isomer, unassigned) [23/24 DIAST-1]: the pIC50 in assay [1] was 6.00 to 7.00; on HIF-2α [2], less than 6.00; against HIF-2α [3], 6.00 to 7.00. In addition, on HIF-2α [2], the “Serum Shift (approximate)” value was 6.
Turning to `O[C@H]1c2c(C(F)(F)F)nn(CC3CC3)c2CCC1(F)F` [Example 10, (4S)-1-(cyclopropylmethyl)-5,5-difluoro-3-(trifluoromethyl)-6,7-dihydro-4H-indazol-4-ol], the pIC50 (in assay [1]; at HIF-2α [3]) was less than 6.00 each time.
Take `CC(C)CCn1nc(C(F)(F)F)c2c1CCC(F)(F)[C@H]2O` [Example 40, (4S)-5,5-difluoro-1-(3-methylbutyl)-3-(trifluoromethyl)-6,7-dihydro-4H-indazol-4-ol]: the results for the pIC50 (in assay [1]; on HIF-2α [2]; at HIF-2α [3]) were 6.00 to 7.00, less than 6.00 and 6.00 to 7.00, respectively. For the same compound, the “Serum Shift (approximate)” value at HIF-2α [2] stood at 31.
For the compound `CC(CCn1nc(C#N)c2c1CCC(F)(F)[C@H]2O)C(F)(F)F` (stereo partly drawn) [Example 49, (4S)-5,5-difluoro-4-hydroxy-1-(4,4,4-trifluoro-3-methylbutyl)-6,7-dihydro-4H-indazole-3-carbonitrile], the figures for the pIC50 (in assay [1]; at HIF-2α [2]; against HIF-2α [3]) were 6.00 to 7.00, less than 6.00 and 6.00 to 7.00, respectively. Moreover, the “Serum Shift (approximate)” value at HIF-2α [2] was found to be 7.
Consider `O[C@H]1c2c(C(F)(F)F)nn(CCC3CC3(F)F)c2CCC1(F)F` (stereo partly drawn) [Example 20, (4S)-1-[2-(2,2-difluorocyclopropyl)ethyl]-5,5-difluoro-3-(trifluoromethyl)-4,5,6,7-tetrahydro-1H-indazol-4-ol], for which the pIC50 in assay [1] is more than 7.00; on HIF-2α [2], 6.00 to 7.00; against HIF-2α [3], more than 7.00. Moreover, on HIF-2α [2], the “Serum Shift (approximate)” value turned out to be 7.
Take `CC(CCn1nc(C(F)(F)F)c2c1CCC(F)(F)[C@H]2O)C(F)(F)F` (stereo partly drawn) [Example 38, (4S)-5,5-difluoro-3-(trifluoromethyl)-1-(4,4,4-trifluoro-3-methylbutyl)-6,7-dihydro-4H-indazol-4-ol]: the pIC50 is more than 7.00 in assay [1], 6.00 to 7.00 on HIF-2α [2] and 6.00 to 7.00 on HIF-2α [3]. Further, the “Serum Shift (approximate)” value at HIF-2α [2] is reported as 8.
Turning to `O[C@H]1c2c(C(F)(F)F)nn(CCOC3CC3(F)F)c2CCC1(F)F` (stereo partly drawn) [Example 25, (4S)-1-[2-(2,2-difluorocyclopropoxy)ethyl]-5,5-difluoro-3-(trifluoromethyl)-4,5,6,7-tetrahydro-1H-indazol-4-ol], the pIC50 (in assay [1]; against HIF-2α [3]) was less than 6.00 each time.
Turning to `CC(CCn1nc(S(C)(=O)=O)c2c1CCC(F)(F)[C@H]2O)C(F)(F)F` (stereo partly drawn) [Example 50, (4S)-5,5-difluoro-3-methylsulfonyl-1-(4,4,4-trifluoro-3-methylbutyl)-6,7-dihydro-4H-indazol-4-ol], the pIC50 (in assay [1]; against HIF-2α [3]) was less than 6.00 in each case.
In the case of `O[C@H]1c2c(C(F)(F)F)nn(C3CCC(F)(F)CC3)c2CCC1(F)F` [Example 36, (4S)-1-(4,4-difluorocyclohexyl)-5,5-difluoro-3-(trifluoromethyl)-6,7-dihydro-4H-indazol-4-ol], the pIC50 (in assay [1]; on HIF-2α [3]) was 6.00 to 7.00 in each case.
Turning to `CO[C@H]1C[C@H](n2nc(C(F)(F)F)c3c2CC(F)(F)[C@H]3O)CCC1(F)F` (racemic) [Example 111, (4S)-1-[(1R,3S)-4,4-difluoro-3-methoxycyclohexyl]-5,5-difluoro-3-(trifluoromethyl)-1H,4H,5H,6H-cyclopenta[c]pyrazol-4-ol and (4S)-1-[(1S,3R)-4,4-difluoro-3-methoxycyclohexyl]-5,5-difluoro-3-(trifluoromethyl)-1H,4H,5H,6H-cyclopenta[c]pyrazol-4-ol], the pIC50 at HIF-2α [2] is less than 6.00; at HIF-2α [3] it was more than 7.00. Further, the “Serum Shift (approximate)” value at HIF-2α [2] came to 9.
In the case of `O[C@H]1c2c(C(F)(F)F)nn([C@@H]3CC[C@@H](F)[C@@H](F)C3)c2CC1(F)F` (single isomer, unassigned) [72/73 DIAST-1], the pIC50 was 6.00 to 7.00 on HIF-2α [2] and more than 7.00 against HIF-2α [3]. For the same compound, the “Serum Shift (approximate)” value at HIF-2α [2] was found to be 8.
Consider `O[C@H]1c2c(C(F)(F)F)nn(C[C@H](F)C3CC3)c2CCC1(F)F` (single isomer, unassigned) [26/27 DIAST-2], for which the values for the pIC50 at HIF-2α [2] and against HIF-2α [3] were less than 6.00 and 6.00 to 7.00, respectively. The “Serum Shift (approximate)” value at HIF-2α [2] is listed as 10.
`O[C@H]1c2c(C(F)(F)F)nn(CCCOC(F)(F)F)c2[C@@H](F)CC1(F)F` (single isomer, unassigned) [129/130 DIAST-1]: on HIF-2α [2], the pIC50 was less than 6.00 and the “Serum Shift (approximate)” value is given as 18. Also, the pIC50 at HIF-2α [3] was 6.00 to 7.00.

The record behind these values is US12071411B2, “Inhibitors of HIF-2α and methods of use thereof” (ARCUS BIOSCIENCES, INC., priority 2021, dated 2024).
